Starred links: 1 amine or outer side, 2 acyl side, 3 side chain; linkers in the order of their positions; H or OH if unused. Positions of bridges follow the written chain, without caps; N, C: chain ends. Non-standard residues stand in square brackets, D forms with d. Residues, ends and D or L forms follow the SMILES beside them. *: point of attachment. X1 = CC[C@H](C)[C@@H](N[*:1])[C@@H](O)CC(=O)O[C@H](C(=O)[C@H](C)C(=O)[*:2])C(C)C; NMeY = CN[C@@H](Cc1ccc(O)cc1)C(=O)O; dNMeL = CN[C@H](CC(C)C)C(=O)O; Pyruvoyl = CC(=O)C(=O)*
Experiments:
[1] = tested on: NCI-H-460 human NSCLC xenograft; assay: Aplidine with temsirolimus, NCI-H-460 xenograft in athymic nude mice (Example 5); assay type: in vivo; conditions: for % Inhibition G4: temsirolimus 10 mg/kg/day; for % Inhibition G3: temsirolimus 20 mg/kg/day; for antitumor activity as single agent (monotherapy): temsirolimus 10 and 20 mg/kg/day; for % Inhibition G2: aplidine 0.06 mg/kg/day
Method: Female athymic nude mice (Harlan Sprague Dawley, Madison, Wis.) were utilized for all experiments. Mice were implanted with a cell suspension when mice were 6-8 weeks of age. Animals were housed in ventilated rack caging with food and water ad libitum. The mice were acclimated for at least 5 days prior to tumor implantation.
The tumor model used in this study was NCI-H-460, which is a human NSCLC cell line obtained from the ATCC (Manassas, Va.). NCI-H-460 cells were grown in RPMI-1640 medium, 10% FBS, 10 mM Hepes, 1 mM sodium pyruvate, 4.5 g/l glucose, 1.5 g/l sodium bicarbonate and 2 mM L-glutamine. Cells from in vitro passage 11 were implanted SC into study mice: 5×10^6 cells/mouse in 0.2 ml 50% Matrigel/50% medium without antibiotics or serum, using a 23 G needle and 1 cc syringe.
Tumor measurements were determined as disclosed in Example 1. When tumor growth was within an average size range of 110±25 mg (mean±SD), mice were randomized into the treatment and control groups based on tumor weight by using LabCat® In Life module V 8.0 SP1 tumor tracking and measurement software.
The treatment of NCI-H-460-tumor-bearing mice was initiated on DPI (Day Post Implantation) 7. Body weights were recorded on treatment days and when tumor sizes were measured. In those days wherein the two drugs were administered the same day, the combination therapy groups were treated by co-administering the two drugs at the same time, with no attempt to sequence the treatments.
(§1) Aplidine was provided in the form of vials of lyophilized aplidine powder which was reconstituted in Cremophor EL/ethanol/water (CEW) 15/15/70 to a concentration of 0.5 mg/ml. The aplidine solution in CEW was diluted in 0.9% Saline to the dosing formulation concentrations, being the final proportion of CEW of 0.18/0.18/0.84.
Temsirolimus was provided in the form of vials containing a non-aqueous, ethanolic, sterile solution of temsirolimus, 25 mg/ml. […] Then, the solution was further diluted in 0.9% Saline to the dosing formulation concentrations.
Tumor size measurements were recorded twice weekly from the treatment initiation until the termination of the study. Tumor growth inhibition was assessed comparing the mean tumor weight between the two agents in combination (aplidine and temsirolimus) against temsirolimus mean tumor weight at the different concentrations assayed.
(§2) Mean, standard deviation and standard error of the mean were determined for tumor volume for all animal groups at all assessments. Student's t test was performed on tumor volumes at each measurement day, including at the end of the study, to determine whether there were any statistically significant differences between combination treatment groups and single monotherapy treatment groups.
The definition and criteria for the evaluation of potentiation and the degree of additivity for the combination therapy were the same as those disclose in Example 1.

[2] = tested on: MRI-H-121 human renal tumor xenograft; assay: Aplidine with sorafenib, MRI-H-121 xenograft in athymic nude mice (Example 1); assay type: in vivo; conditions: for antitumor activity as single agent (monotherapy): doses and schedules tested, sorafenib 60 or 30 mg/kg/day
Method: Female athymic nude mice (Harlan Sprague Dawley, Madison, Wis.) were utilized for all experiments. Mice were implanted with tumor fragments or a cell suspension when mice were 5 weeks of age. Animals were housed in ventilated rack caging, 5 mice per cage, with food and water ad libitum. The mice were acclimated for 1 week prior to being implanted with tumor fragments or cell suspensions.
Tumor measurements were determined by using Vernier calipers. The formula to calculate volume for a prolate ellipsoid was used to estimate tumor volume (mm^3) from 2-dimensional tumor measurements: Tumor volume (mm^3)=[L×W^2]÷2, where L is the length and it is the longest diameter in mm, and W is the width and it is the shortest diameter in mm of a tumor. Assuming unit density, volume was converted to weight (i.e., 1 mm^3=1 mg).
Body weights were recorded on treatment days and when tumor sizes were measured. In those days wherein the two drugs were administered the same day, the combination therapy groups were treated by co-administering the two drugs at the same time, with no attempt to sequence the treatments.
as §1, with “Then the” for “The”
Tumor size measurements were recorded twice weekly from the treatment initiation until the termination of the study.
as §2
Determine the % of tumor growth inhibition, as 100−% T/C, for each of the drugs administered as monotherapy at the doses used in the combinations. % T/C was obtained by comparing the mean tumor weight in the treatment groups (T) to the mean tumor weight in the control group (C) (T/C×100%). • 2. The two scores were added together to determine the “expected response” if each agent produced the same response as it did when administered as monotherapy. • 3. This “expected response” was subtracted from the % of tumor growth inhibition determined for the combination therapy group: • a. A negative number meant that the effect of combining the two drugs was less than additive. • b. If the resulting number was close to zero, the effect of combining the two drugs was determined as additive. • c.

[3] = tested on: ALL-MOLT4 cells; conditions: mechanistic studies; cited from earlier work
[4] = G3: temsirolimus 20 mg/kg/day IP
[5] = G4: temsirolimus 10 mg/kg/day IP
[6] = aplidine 0.040 and/or sorafenib 30 mg/kg/day
[7] = aplidine 0.060 and/or sorafenib 60 mg/kg/day
[8] = G2: aplidine 0.060 mg/kg/day IP

CO[C@H]1C[C@@H]2CC[C@@H](C)[C@@](O)(O2)C(=O)C(=O)N2CCCC[C@H]2C(=O)O[C@H]([C@H](C)C[C@@H]2CC[C@@H](OC(=O)C(C)(CO)CO)[C@H](OC)C2)CC(=O)[C@H](C)/C=C(\C)[C@@H](O)[C@@H](OC)C(=O)[C@H](C)C[C@H](C)/C=C/C=C/C=C/1C [temsirolimus]
% T/C on day 7 [1, 4]: 98.2% | % T/C on day 10 [1, 4]: 41.2% | % T/C on day 13 [1, 4]: 30.5% | % T/C on day 16 [1, 4]: 30.9% | % T/C on day 20 [1, 4]: 26.3% | % T/C on day 23 [1, 4]: 27.4% | % T/C on day 27 [1, 4]: 35.6% | % T/C on day 29 [1, 4]: 48.2% | % T/C on day 31 [1, 4]: 56.8% | % T/C on day 7 [1, 5]: 102.1% | % T/C on day 10 [1, 5]: 49.9% | % T/C on day 13 [1, 5]: 37.1% | % T/C on day 16 [1, 5]: 34.1% | % T/C on day 20 [1, 5]: 30.9% | % T/C on day 23 [1, 5]: 31.4% | % T/C on day 27 [1, 5]: 42.6% | % T/C on day 29 [1, 5]: 57.8% | % T/C on day 31 [1, 5]: 60.3% | % Inhibition G4 ([1]; day 7): −2.1% | % Inhibition G4 ([1]; day 10): 50.1% | % Inhibition G4 ([1]; day 13): 62.9% | % Inhibition G4 ([1]; day 16): 65.9% | % Inhibition G4 ([1]; day 20): 69.1% | % Inhibition G4 ([1]; day 23): 68.6% | % Inhibition G4 ([1]; day 27): 57.4% | % Inhibition G4 ([1]; day 29): 42.2% | % Inhibition G4 ([1]; day 31): 39.7% | % Inhibition G3 ([1]; day 7): 1.8% | % Inhibition G3 ([1]; day 10): 58.8% | % Inhibition G3 ([1]; day 13): 69.5% | % Inhibition G3 ([1]; day 16): 69.1% | % Inhibition G3 ([1]; day 20): 73.7% | % Inhibition G3 ([1]; day 23): 72.6% | % Inhibition G3 ([1]; day 27): 64.4% | % Inhibition G3 ([1]; day 29): 51.8% | % Inhibition G3 ([1]; day 31): 43.2% | antitumor activity as single agent (monotherapy) [1]: meeting the NCI criteria for activity

CNC(=O)c1cc(Oc2ccc(NC(=O)Nc3ccc(Cl)c(C(F)(F)F)c3)cc2)ccn1 [sorafenib]
% T/C on day 14 [2, 6]: 99.7% | % T/C on day 16 [2, 6]: 85.6% | % T/C on day 20 [2, 6]: 62.1% | % T/C on day 27 [2, 6]: 78.7% | % T/C on day 30 [2, 6]: 72.0% | % T/C on day 34 [2, 6]: 66.1% | % T/C on day 37 [2, 6]: 72.5% | % T/C on day 41 [2, 6]: 79.5% | % T/C on day 44 [2, 6]: 77.6% | % T/C on day 48 [2, 6]: 76.1% | % T/C on day 14 [2, 7]: 103.8% | % T/C on day 16 [2, 7]: 85.0% | % T/C on day 20 [2, 7]: 66.5% | % T/C on day 23 [2, 7]: 71.7% | % T/C on day 27 [2, 7]: 70.4% | % T/C on day 30 [2, 7]: 75.6% | % T/C on day 34 [2, 7]: 69.6% | % T/C on day 37 [2, 7]: 71.1% | % T/C on day 41 [2, 7]: 74.7% | % T/C on day 44 [2, 7]: 71.0% | % T/C on day 48 [2, 7]: 71.8% | antitumor activity as single agent (monotherapy) [2]: did not reach the NCI criteria for activity

CC[C@H](C)[C@H]1NC(=O)[C@@H](NC(=O)[C@@H](CC(C)C)N(C)C(=O)[C@@H]2CCCN2C(=O)C(C)=O)[C@@H](C)OC(=O)[C@H](Cc2ccc(OC)cc2)N(C)C(=O)[C@@H]2CCCN2C(=O)[C@H](CC(C)C)NC(=O)[C@@H](C)C(=O)[C@H](C(C)C)OC(=O)C[C@@H]1O [aplidine, dehydrodidemnin B] (Pyruvoyl-P[dNMeL]T[X1]LP[NMeY](Me); ester 3-C)
% T/C on day 14 [2, 6]: 103.5% | % T/C on day 16 [2, 6]: 104.0% | % T/C on day 20 [2, 6]: 85.1% | % T/C on day 23 [2, 6]: 85.9% | % T/C on day 27 [2, 6]: 94.1% | % T/C on day 30 [2, 6]: 86.4% | % T/C on day 34 [2, 6]: 91.0% | % T/C on day 37 [2, 6]: 85.6% | % T/C on day 41 [2, 6]: 92.5% | % T/C on day 44 [2, 6]: 93.9% | % T/C on day 48 [2, 6]: 94.9% | % T/C on day 14 [2, 7]: 102.0% | % T/C on day 16 [2, 7]: 97.5% | % T/C on day 20 [2, 7]: 81.5% | % T/C on day 23 [2, 7]: 73.9% | % T/C on day 27 [2, 7]: 98.4% | % T/C on day 30 [2, 7]: 88.5% | % T/C on day 34 [2, 7]: 75.8% | % T/C on day 37 [2, 7]: 75.0% | % T/C on day 41 [2, 7]: 88.3% | % T/C on day 44 [2, 7]: 90.2% | % T/C on day 48 [2, 7]: 95.5% | antitumor activity as single agent (monotherapy) [2]: refractory | VEGF secretion [3]: block VEGF secretion | % T/C on day 7 [1, 8]: 101.2% | % T/C on day 10 [1, 8]: 95.5% | % T/C on day 13 [1, 8]: 73.2% | % T/C on day 16 [1, 8]: 77.4% | % T/C on day 20 [1, 8]: 88.5% | % T/C on day 23 [1, 8]: 84.3% | % T/C on day 27 [1, 8]: 86.4% | % T/C on day 29 [1, 8]: 96.9% | % T/C on day 31 [1, 8]: 96.0% | % Inhibition G2 ([1]; day 7): −1.2% | % Inhibition G2 ([1]; day 10): 4.5% | % Inhibition G2 ([1]; day 13): 26.8% | % Inhibition G2 ([1]; day 16): 22.6% | % Inhibition G2 ([1]; day 20): 11.5% | % Inhibition G2 ([1]; day 23): 15.7% | % Inhibition G2 ([1]; day 27): 13.6% | % Inhibition G2 ([1]; day 29): 3.1% | % Inhibition G2 ([1]; day 31): 4.0% | antitumor activity as single agent (monotherapy) [1]: inactive
